Results taken from patent US9309242B2, “Substituted pyrido[2,3-b]pyrazines as FGFR kinase inhibitors” (priority 2011, dated 2016).
Like-named read-outs stand apart in the source and are kept apart here.

Key:
[1] = molecular target: FGFR3 (h) (Homo sapiens, UniProt P22607); assay: FGFR3 (enzymatic assay), TR-FRET; type: biochemical; conditions: average values if tested multiple times, read-out: FGFR 3 pIC50 (converted)
Text: Time-Resolved Fluorescence Resonance Energy Transfer (TR-FRET) signal (ex340 nm.

[2] = test system: Ba/F3-FGFR1-transfected cells; assay: Ba/F3-FGFR1 (plus IL3) cellular proliferation assay, counterscreen with 10 ng/ml murine IL3; type: cell-based; conditions: read-out: BAF3-FGFR1 (PLUS IL3) pIC50 (converted)
Outline: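 Proliferation read-out: resazurin-based Alamar Blue fluorescence (540/590 nm) after 4 h, following 24 h compound treatment of 20000 Ba/F3-FGFR1 cells per well in 10% FBS RPMI at 37° C. IL3 counterscreen used the same protocol plus 10 ng/ml murine IL3.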

[3] = test system: Ba/F3-FGFR3-transfected cells; assay: Ba/F3-FGFR3 (plus IL3) cellular proliferation assay, counterscreen with 10 ng/ml murine IL3; type: cell-based; conditions: read-out: BAF3-FGFR3 (PLUS IL3) pIC50 (converted)
Outline: (§1)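 Compound dilutions were dispensed first, then 20000 FGFR3-transfected Ba/F3 cells per well in serum-containing RPMI-1640 were added. After 24 h incubation at 37° C, Alamar Blue was applied for 4 h before relative fluorescence units were recorded. In the minus-IL3 format cells grow without cytokine; the other format contains 10 ng/ml murine IL3.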

[4] = molecular target: T1, Ba/F3-FGFR1-transfected cells (Homo sapiens, UniProt P11362); assay: Ba/F3-FGFR1 (minus IL3) cellular proliferation assay, Alamar Blue; type: cell-based
T1 construct: BAF3-FGFR1 (MIN IL3) pIC50; other: minus IL3
Outline: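 Compound is dispensed first, then FGFR1-transfected Ba/F3 cells are added at 20000 per well in phenol red-free RPMI-1640 containing 10% FBS. After 24 h at 37 °C, Alamar Blue is added for 4 h and fluorescence is measured at 540/590 nm.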

[5] = molecular target: FGFR4 (h) (Homo sapiens, UniProt P22455); assay: FGFR4 (enzymatic assay), TR-FRET; type: biochemical; conditions: FGFR 4 pIC50, enzymatic assay; average values if tested multiple times
[6] = molecular target: T2, Ba/F3-FGFR3-transfected cells (Homo sapiens, UniProt P22607); assay: Ba/F3-FGFR3 (minus IL3) cellular proliferation assay, Alamar Blue; type: cell-based
T2 construct: BAF3-FGFR3 (MIN IL3) pIC50; other: minus IL3
Outline: as §1

[7] = test system: Ba/F3-KDR-transfected cells; assay: Ba/F3-KDR (plus IL3) cellular proliferation assay, counterscreen with 10 ng/ml murine IL3; type: cell-based; conditions: read-out: BAF3-KDR (PLUS IL3) pIC50 (converted)
Outline: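 Proliferation read-out by Alamar Blue fluorescence (ex. 540 nm, em. 590 nm) after 4 hours, following 24 hours of compound treatment at 37° C of 20000 Ba/F3-KDR cells per well in RPMI-1640/10% FBS. Same protocol with 10 ng/ml murine IL3 serves as counterscreen.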

[8] = molecular target: FGFR1 (h) (Homo sapiens, UniProt P11362); assay: FGFR1 (enzymatic assay), TR-FRET; type: biochemical; conditions: average values if tested multiple times, read-out: FGFR 1 pIC50 (converted)
[9] = molecular target: Ba/F3-FGFR4-transfected cells (Homo sapiens, UniProt P22455); assay: Ba/F3-FGFR4 cellular proliferation assay, Alamar Blue; type: cell-based
Outline: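 Proliferation is measured by resazurin reduction: after 24 h compound treatment at 37 °C in RPMI-1640/10% FBS, cells get Alamar Blue for 4 h before RFU read (540/590 nm). Each well holds 20000 Ba/F3-FGFR4-transfected cells.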

[10] = molecular target: FGFR2 (h) (Homo sapiens, UniProt P21802); assay: FGFR2 (enzymatic assay), TR-FRET; type: biochemical; conditions: enzymatic assay; average values if tested multiple times; read-out: FGFR 2 pIC50 (converted)
Outline: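 Phosphorylation of 500 nM Btn-Flt3 by human FGFR2 (150 ng/ml) is measured at 0.4 μM ATP. The buffer is 50 mM HEPES pH 7.5 containing 6 mM MnCl2, 1 mM DTT, 0.1 mM Na3VO4 and 0.01% Triton-X-100, and compound is tested at 1% DMSO final.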

[11] = plus IL3 (10 ng/ml murine IL3, counterscreen)

Sequence of FGFR2 (h) (P21802 22-821): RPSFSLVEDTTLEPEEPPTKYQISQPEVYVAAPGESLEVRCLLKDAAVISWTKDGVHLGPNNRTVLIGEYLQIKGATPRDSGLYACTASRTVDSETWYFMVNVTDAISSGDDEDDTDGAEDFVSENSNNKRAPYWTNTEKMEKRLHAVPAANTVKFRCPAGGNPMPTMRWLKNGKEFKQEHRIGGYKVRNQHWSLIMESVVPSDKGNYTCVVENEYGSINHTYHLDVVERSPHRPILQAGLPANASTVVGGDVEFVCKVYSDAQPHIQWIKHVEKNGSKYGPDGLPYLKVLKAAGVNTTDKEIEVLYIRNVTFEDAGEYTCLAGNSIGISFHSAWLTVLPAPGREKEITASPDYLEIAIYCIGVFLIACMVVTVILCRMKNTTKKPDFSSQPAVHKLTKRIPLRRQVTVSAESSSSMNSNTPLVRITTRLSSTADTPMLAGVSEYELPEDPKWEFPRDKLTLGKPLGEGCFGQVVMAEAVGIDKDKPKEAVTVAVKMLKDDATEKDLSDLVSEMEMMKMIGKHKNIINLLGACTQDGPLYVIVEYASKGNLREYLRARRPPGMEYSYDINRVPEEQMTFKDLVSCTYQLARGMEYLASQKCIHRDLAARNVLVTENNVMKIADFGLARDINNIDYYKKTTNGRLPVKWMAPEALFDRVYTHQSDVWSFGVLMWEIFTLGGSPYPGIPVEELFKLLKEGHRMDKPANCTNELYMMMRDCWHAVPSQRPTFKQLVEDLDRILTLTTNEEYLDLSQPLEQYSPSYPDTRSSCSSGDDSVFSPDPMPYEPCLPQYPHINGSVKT
Sequence of FGFR4 (h) (P22455 22-802): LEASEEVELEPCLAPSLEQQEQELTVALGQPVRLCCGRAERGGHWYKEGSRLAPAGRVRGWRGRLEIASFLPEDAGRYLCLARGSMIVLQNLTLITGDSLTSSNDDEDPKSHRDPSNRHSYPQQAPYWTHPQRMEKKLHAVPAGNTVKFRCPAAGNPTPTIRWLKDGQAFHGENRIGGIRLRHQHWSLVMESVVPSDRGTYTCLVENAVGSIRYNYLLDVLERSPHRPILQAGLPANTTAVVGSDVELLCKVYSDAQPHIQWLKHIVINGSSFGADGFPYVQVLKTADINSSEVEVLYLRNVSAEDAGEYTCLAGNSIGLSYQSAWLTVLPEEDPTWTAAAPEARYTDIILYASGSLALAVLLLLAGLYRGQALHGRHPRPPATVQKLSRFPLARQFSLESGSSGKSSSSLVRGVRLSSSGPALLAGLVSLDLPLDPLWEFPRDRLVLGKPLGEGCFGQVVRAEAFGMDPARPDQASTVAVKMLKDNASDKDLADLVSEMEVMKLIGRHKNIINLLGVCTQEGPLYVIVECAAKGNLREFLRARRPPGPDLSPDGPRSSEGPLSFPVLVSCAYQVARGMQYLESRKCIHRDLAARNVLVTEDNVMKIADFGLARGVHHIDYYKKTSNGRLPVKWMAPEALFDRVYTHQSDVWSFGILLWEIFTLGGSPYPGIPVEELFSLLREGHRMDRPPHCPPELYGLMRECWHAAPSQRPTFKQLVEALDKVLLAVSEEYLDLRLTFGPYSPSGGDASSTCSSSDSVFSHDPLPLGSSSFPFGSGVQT
T2 sequence (P22607 whole entry, change not shown): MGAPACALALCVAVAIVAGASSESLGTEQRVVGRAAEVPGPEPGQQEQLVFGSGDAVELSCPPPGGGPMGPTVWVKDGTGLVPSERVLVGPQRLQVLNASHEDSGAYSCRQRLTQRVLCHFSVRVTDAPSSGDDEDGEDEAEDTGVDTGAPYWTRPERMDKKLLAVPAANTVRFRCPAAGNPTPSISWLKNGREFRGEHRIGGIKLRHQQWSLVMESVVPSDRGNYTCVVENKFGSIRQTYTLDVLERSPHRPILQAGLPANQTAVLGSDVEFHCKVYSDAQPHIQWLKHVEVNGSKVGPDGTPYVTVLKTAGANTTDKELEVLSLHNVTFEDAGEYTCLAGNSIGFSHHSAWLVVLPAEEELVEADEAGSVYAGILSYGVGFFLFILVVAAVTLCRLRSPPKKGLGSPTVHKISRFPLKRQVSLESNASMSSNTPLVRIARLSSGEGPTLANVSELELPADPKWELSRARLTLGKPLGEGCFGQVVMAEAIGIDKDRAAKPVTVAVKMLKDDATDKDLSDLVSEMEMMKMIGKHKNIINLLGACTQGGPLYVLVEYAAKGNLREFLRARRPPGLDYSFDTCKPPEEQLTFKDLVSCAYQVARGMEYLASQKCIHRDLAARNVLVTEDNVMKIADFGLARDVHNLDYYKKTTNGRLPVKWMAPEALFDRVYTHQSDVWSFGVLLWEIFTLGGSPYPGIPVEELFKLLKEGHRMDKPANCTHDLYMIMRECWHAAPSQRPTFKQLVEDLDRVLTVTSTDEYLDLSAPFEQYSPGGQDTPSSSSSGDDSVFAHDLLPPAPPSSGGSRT
Sequence of FGFR1 (h) (P11362 22-822): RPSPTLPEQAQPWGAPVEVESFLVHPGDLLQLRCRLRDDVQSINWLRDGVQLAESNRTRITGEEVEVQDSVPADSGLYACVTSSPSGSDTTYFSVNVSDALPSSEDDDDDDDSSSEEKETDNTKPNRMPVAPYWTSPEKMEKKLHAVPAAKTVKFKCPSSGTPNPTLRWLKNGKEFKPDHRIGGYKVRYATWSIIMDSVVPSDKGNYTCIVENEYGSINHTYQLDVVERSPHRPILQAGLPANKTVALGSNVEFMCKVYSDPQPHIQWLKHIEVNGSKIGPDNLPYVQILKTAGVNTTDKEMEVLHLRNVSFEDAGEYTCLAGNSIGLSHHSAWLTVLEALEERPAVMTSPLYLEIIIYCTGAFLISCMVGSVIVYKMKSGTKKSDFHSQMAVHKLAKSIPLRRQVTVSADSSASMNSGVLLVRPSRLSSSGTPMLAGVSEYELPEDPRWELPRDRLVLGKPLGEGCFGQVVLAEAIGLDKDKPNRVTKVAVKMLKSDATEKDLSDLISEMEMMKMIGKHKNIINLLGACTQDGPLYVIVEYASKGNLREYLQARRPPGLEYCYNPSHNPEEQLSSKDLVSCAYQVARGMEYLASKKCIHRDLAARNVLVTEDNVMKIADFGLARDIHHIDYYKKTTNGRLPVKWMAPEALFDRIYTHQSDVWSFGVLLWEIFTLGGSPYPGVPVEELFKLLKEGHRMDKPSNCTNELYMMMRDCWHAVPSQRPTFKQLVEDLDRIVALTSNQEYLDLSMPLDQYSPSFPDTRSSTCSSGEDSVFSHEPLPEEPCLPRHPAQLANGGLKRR
Sequence of Ba/F3-FGFR4-transfected cells (P22455 whole entry, change not shown): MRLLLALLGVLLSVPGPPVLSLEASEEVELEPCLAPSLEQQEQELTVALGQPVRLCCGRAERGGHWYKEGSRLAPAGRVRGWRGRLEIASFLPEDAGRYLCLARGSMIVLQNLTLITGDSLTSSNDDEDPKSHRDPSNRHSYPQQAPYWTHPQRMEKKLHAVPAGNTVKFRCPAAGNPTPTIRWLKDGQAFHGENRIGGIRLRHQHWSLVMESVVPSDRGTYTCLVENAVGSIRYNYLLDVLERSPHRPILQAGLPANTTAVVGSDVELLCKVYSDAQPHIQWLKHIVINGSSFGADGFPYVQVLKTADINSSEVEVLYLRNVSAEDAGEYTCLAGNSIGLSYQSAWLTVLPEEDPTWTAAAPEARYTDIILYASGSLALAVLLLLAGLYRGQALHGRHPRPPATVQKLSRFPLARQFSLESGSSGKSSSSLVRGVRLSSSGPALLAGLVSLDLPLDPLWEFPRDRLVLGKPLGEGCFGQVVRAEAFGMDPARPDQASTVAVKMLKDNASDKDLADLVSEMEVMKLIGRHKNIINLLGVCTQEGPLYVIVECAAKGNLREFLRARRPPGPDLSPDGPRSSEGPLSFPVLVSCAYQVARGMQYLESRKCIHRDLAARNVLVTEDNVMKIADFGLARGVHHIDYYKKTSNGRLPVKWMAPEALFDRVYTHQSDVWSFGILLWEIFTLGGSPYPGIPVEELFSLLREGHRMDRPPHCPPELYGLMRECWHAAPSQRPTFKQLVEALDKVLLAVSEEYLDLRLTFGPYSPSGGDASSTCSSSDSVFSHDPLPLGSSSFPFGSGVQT
T1 sequence (P11362 whole entry, change not shown): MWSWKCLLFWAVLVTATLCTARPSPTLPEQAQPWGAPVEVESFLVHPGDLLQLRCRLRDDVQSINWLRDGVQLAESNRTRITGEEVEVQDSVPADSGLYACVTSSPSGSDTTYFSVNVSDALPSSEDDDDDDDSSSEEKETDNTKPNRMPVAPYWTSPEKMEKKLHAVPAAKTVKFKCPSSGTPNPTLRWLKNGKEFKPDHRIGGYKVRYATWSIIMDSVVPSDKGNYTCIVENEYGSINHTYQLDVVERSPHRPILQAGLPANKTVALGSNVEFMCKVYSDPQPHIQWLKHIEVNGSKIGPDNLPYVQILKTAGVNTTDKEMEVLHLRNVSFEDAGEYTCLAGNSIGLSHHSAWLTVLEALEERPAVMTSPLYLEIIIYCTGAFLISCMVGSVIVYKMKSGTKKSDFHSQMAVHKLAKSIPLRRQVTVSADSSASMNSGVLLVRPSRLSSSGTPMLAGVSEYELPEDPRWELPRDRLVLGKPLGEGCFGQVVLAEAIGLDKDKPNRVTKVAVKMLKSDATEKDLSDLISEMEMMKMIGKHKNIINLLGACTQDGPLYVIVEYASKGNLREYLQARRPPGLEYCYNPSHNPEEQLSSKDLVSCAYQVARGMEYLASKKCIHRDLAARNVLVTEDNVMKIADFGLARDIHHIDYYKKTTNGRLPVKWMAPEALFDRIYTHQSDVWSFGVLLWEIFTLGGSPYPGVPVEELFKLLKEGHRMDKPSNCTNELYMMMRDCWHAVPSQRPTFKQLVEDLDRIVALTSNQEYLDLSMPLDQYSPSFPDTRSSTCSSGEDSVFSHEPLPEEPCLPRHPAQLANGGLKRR

SMILES	IC50 [1] [nM]	IC50 [2, 11] [nM]	IC50 [3, 11] [nM]	BAF3-FGFR1 (MIN IL3) pIC50 [4]	IC50 [5] [nM]	BAF3-FGFR3 (MIN IL3) pIC50 [6]	IC50 [7, 11] [nM]	IC50 [8] [nM]	BAF3-FGFR4 pIC50 [9]	IC50 [10] [nM]	IC50 [2] [nM]	IC50 [3] [nM]	IC50 [7] [nM]
COc1cc(OC)c(F)c(N(CCO)c2ccc3ncc(-c4cnn(C)c4)nc3n2)c1F [Compound 20]	1.58	> 10000	> 10000	8.35	3.98	8.15	> 10000	25.1	7.63	126			
COc1cc(OC)c(F)c(N(Cc2ncc[nH]2)c2ccc3ncc(-c4cnn(C)c4)nc3n2)c1 [Compound 23]	1.07	> 10000	> 10000	8.85	1	~8.40	> 10000	0.741	8.02	1.45			
COc1cc(OC)cc(N(Cc2ncc[nH]2)c2ccc3ncc(-c4cnn(C)c4)nc3n2)c1 [Compound 24]	0.603	> 10000	> 10000	8.46	0.741	8.20	> 10000	0.55	7.77	1.12			
COc1cc(OC)cc(N(CC#Cc2ncccc2OC)c2ccc3ncc(-c4cnn(C)c4)nc3n2)c1 [Compound 26]	39.8	> 10000	> 10000	6.8	63.1	~5.55	> 10000	50.1	<5	63.1			
Cn1cc(-c2cnc3ccc(N(Cc4ncc[nH]4)c4cc(F)cc(F)c4)nc3n2)cn1 [Compound 27]	3.89	> 10000	> 10000	6.14	11.2	~6.54	> 10000	19.1	6.09	6.61			
COc1cc(OC)c(F)c(N(Cc2cn(S(=O)(=O)N(C)C)cn2)c2ccc3ncc(-c4cnn(C)c4)nc3n2)c1 [Compound 36]	1.7	> 10000	> 10000	7.72	1.48	~7.57	> 10000	1.55	7.30	3.98			
COc1cc(/N=c2\ccc3ncc(-c4cnn(C)c4)nc3n2CCNC(C)C)c(F)c(OC)c1 [Compound 37]	8.71	> 10000	> 10000	7.78	15.5	~7.65	> 10000	1.62	6.78	4.47			
CNCCn1/c(=N/c2cc(OC)cc(OC)c2F)ccc2ncc(-c3cnn(C)c3)nc21 [Compound 38]	4.9	> 10000	> 10000	6.92	17.8	6.27	> 10000	2.45	5.74	4.57			
CNCCN(c1ccc2ncc(-c3cnn(C)c3)nc2n1)c1cc(OC)cc(OC)c1F [Compound 39]	3.98			7.97	11	~7.61		2.19	6.73	5.37	> 10000	> 10000	> 10000
COc1cc(OC)c(F)c(N(CCO)c2ccc3ncc(-c4cnn(C)c4)nc3n2)c1 [Compound 40]	0.646	> 10000	> 10000	7.80	1.82	7.84	> 10000	0.724	7.04	1.48			
COc1cc(OC)c(F)c(N(Cc2c[nH]cn2)c2ccc3ncc(-c4cnn(C)c4)nc3n2)c1 [Compound 41]	0.589	> 10000	> 10000	7.99	0.759	8.08	> 10000	0.363	7.47	1.32			
COc1cc(OC)c(Cl)c(N(Cc2ncc[nH]2)c2ccc3ncc(-c4cnn(C)c4)nc3n2)c1 [Compound 42]	2.14	> 10000	> 10000	8.57	3.02	~8.3	> 10000	1.38	7.35	2.04			
CNCCn1/c(=N/c2c(F)cccc2F)ccc2ncc(-c3cnn(C)c3)nc21 [Compound 44]	~794	> 10000	> 10000	5.12	2820	<5	> 10000	490	<5	219			
COc1cc(/N=c2\ccc3ncc(-c4cnn(C)c4)nc3n2CC2CCC(=O)N2)c(F)c(OC)c1 (stereo not shown) [Compound 45]	1.35	> 10000	> 10000	7.14	3.98	7.07	> 10000	1.48	6.59	1.91			
COc1cc(OC)c(F)c(N(CC2CCC(=O)N2)c2ccc3ncc(-c4cnn(C)c4)nc3n2)c1 (stereo not shown) [Compound 46]	1.51	> 10000	> 10000	7.33	3.89	7.42	> 10000	1.82	6.76	2.45			
COc1cc(OC)cc(N(CC2CCC(=O)N2)c2ccc3ncc(-c4cnn(C)c4)nc3n2)c1 (stereo not shown) [Compound 49]	1.62	> 10000	> 10000	6.78	6.31	~6.85	> 10000	3.24	6.24	1.95			
COCC(O)CN(c1ccc2ncc(-c3cnn(C)c3)nc2n1)c1c(F)c(OC)cc(OC)c1F (stereo not shown) [Compound 50]	3.63	> 10000	> 10000	8.10	3.24	~8.11	> 10000	1.74	7.66	3.89			
COCC(O)Cn1c(=Nc2c(F)c(OC)cc(OC)c2F)ccc2ncc(-c3cnn(C)c3)nc21 (stereo not shown) [Compound 51]	0.501	> 10000	> 10000	8.48	0.525	~8.03	> 10000	0.589	7.77	1.29			
COc1cc(OC)c(F)c(/N=c2\ccc3ncc(-c4cnn(C)c4)nc3n2CCCN2CCCC2=O)c1F [Compound 55]	0.49	7760	> 10000	8.12	0.447	8.19	> 10000	0.603	7.71	1.26			
